Assay results as given in patent US20210122730A1, “GLUCOCORTICOID RECEPTOR MODULATORS” (ORIC Pharmaceuticals, Inc., priority 2017, published 2021).

Experiments:
GR = target: T1, GR (Homo sapiens, UniProt P04150); experiment: In Vitro GR Luciferase Reporter Assay (antagonist mode, CHO-K1-GR-MMTV-Luc reporter cells); format: cell-based; settings: antagonist mode, 10 nM Dexamethasone
T1 construct: expressed in transfected cells; host or cells: CHO-K1
T1 sequence (P04150 1-777): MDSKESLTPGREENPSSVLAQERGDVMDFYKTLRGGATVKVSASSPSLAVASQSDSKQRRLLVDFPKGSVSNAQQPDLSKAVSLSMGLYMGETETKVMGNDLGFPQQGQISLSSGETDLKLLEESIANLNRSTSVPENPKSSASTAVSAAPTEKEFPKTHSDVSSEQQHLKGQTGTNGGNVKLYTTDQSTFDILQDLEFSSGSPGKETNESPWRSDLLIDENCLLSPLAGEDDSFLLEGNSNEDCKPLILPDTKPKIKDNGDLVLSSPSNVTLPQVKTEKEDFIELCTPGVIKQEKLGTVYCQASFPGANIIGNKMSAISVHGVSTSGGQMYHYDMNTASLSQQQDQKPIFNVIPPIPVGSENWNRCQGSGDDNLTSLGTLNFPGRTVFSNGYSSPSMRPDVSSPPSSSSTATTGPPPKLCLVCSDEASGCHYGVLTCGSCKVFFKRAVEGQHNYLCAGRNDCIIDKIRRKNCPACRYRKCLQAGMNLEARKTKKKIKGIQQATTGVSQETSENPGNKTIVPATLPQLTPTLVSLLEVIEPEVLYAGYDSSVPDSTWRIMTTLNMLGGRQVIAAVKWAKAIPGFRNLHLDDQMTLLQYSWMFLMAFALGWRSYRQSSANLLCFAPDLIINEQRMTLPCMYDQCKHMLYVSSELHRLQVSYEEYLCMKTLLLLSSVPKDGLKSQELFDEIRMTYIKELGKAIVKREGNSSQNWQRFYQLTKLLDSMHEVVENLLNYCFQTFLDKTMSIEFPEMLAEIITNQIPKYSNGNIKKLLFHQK
Method in brief: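 Antagonist mode: compounds (8 serial 1:5 dilutions) added to GR-MMTV-luciferase CHO-K1 reporter cells co-exposed to 10 nM dexamethasone final, in phenol red-free DMEM plus 10% CSS. After roughly 18-24 h at 37° C, OneGlo luminescence read and IC50 calculated.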

CYP2C8 = target: T2, CYP2C8 (Homo sapiens, UniProt P10632); experiment: CYP Inhibition Assay (CYP2C8, human liver microsomes, paclitaxel substrate); format: in vitro ADME; settings: pH 7.4; pooled human liver microsomes 0.1 mg/mL, probe substrate paclitaxel
T2 construct: Pooled human microsomes were obtained from Sekisui XenoTech, KS; tissue Sekisui XenoTech, KS; host or cells: pooled human liver microsomes
T2 sequence (P10632 1-490): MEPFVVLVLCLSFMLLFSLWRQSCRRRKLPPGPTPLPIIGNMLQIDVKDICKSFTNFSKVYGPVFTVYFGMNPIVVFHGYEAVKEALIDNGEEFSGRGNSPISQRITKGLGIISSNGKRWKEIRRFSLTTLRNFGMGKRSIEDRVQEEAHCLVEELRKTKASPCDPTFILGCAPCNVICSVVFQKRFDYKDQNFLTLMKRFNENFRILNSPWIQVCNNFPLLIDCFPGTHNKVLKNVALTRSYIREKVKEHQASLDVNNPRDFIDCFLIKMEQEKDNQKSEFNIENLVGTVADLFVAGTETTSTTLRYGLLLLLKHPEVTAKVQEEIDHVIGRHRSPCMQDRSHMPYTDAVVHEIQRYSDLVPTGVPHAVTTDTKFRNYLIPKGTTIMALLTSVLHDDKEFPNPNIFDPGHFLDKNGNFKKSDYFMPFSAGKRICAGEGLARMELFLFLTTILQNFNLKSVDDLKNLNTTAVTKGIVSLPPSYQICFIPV
Method in brief: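 CYP2C8 activity read as 6α-hydroxypaclitaxel formation by LC-MS/MS, with % inhibition versus vehicle control. Reactions ran 5 min at 37° C, pH 7.4 phosphate buffer, 0.1 mg/mL pooled human liver microsomes, 1 mM NADPH, duplicate wells.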

SMILES: C[C@]1(O)C[C@@H](N([C@H]2CCC3=Cc4c(cnn4-c4ccc(F)cc4)C[C@]3(C(=O)c3cc(Cl)ccn3)C2)S(=O)(=O)c2ccc(F)cc2)C1 [Example 344, N-((4aS,6S)-4a-(4-chloropicolinoyl)-1-(4-fluorophenyl)-4,4a,5,6,7,8-hexahydro-1H-benzo[f]indazol-6-yl)-4-fluoro-N-((1s,3R)-3-hydroxy-3-methylcyclobutyl)benzenesulfon-amide]
- IC50 (GR): ≤ 100 nM
- inhibition at 5 min (CYP2C8): 25 to 50%

SMILES: O=C(c1cc(F)ccn1)[C@]12Cc3cnn(-c4ccc(F)cc4)c3C=C1CC[C@H](N(C1CC(F)(F)C1)S(=O)(=O)c1ccc(Cl)nc1)C2 [Example 346, 6-chloro-N-(3,3-difluorocyclobutyl)-N-((4aS,6S)-1-(4-fluorophenyl)-4a-(4-fluoropicolinoyl)-4,4a,5,6,7,8-hexahydro-1H-benzo[f]indazol-6-yl)pyridine-3-sulfonamide]
- IC50 (GR): ≤ 100 nM
- inhibition at 5 min (CYP2C8): 25 to 50%

SMILES: Cn1cnc(S(=O)(=O)N(C2CC2)[C@H]2CCC3=Cc4c(cnn4-c4ccc(F)cc4)C[C@]3(C(=O)c3cc(F)ccn3)C2)n1 [Example 347, N-cyclopropyl-N-((4aS,6S)-1-(4-fluorophenyl)-4a-(4-fluoropicolinoyl)-4,4a,5,6,7,8-hexahydro-1H-benzo[f]indazol-6-yl)-1-methyl-1H-1,2,4-triazole-3-sulfonamide]
- IC50 (GR): ≤ 100 nM
- inhibition at 5 min (CYP2C8): 25 to 50%

SMILES: Cn1cnc(S(=O)(=O)N(C2CC2)[C@H]2CCC3=Cc4c(cnn4-c4ccc(F)cc4)C[C@]3(C(=O)c3cc(Cl)ccn3)C2)n1 [Example 348, N-((4aS,6S)-4a-(4-chloropicolinoyl)-1-(4-fluorophenyl)-4,4a,5,6,7,8-hexahydro-1H-benzo[f]indazol-6-yl)-N-cyclopropyl-1-methyl-1H-1,2,4-triazole-3-sulfonamide]
- IC50 (GR): ≤ 100 nM
- inhibition at 5 min (CYP2C8): 25 to 50%

SMILES: Cn1ccc(S(=O)(=O)N(C2CC(F)(F)C2)[C@H]2CCC3=Cc4c(cnn4-c4ccc(F)cc4)C[C@]3(C(=O)c3cc(Cl)ccn3)C2)n1 [Example 349, N-((4aS,6S)-4a-(4-chloropicolinoyl)-1-(4-fluorophenyl)-4,4a,5,6,7,8-hexahydro-1H-benzo[f]indazol-6-yl)-N-(3,3-difluorocyclobutyl)-1-methyl-1H-pyrazole-3-sulfonamide]
- IC50 (GR): ≤ 100 nM
- inhibition at 5 min (CYP2C8): 25 to 50%

SMILES: Cn1cc(S(=O)(=O)N(CC(F)F)[C@H]2CCC3=Cc4c(cnn4-c4ccc(F)cc4)C[C@]3(C(=O)c3ncc(C(F)(F)F)s3)C2)nn1 [Example 350, N-(2,2-difluoroethyl)-N-((4aS,6S)-1-(4-fluorophenyl)-4a-(5-(trifluoromethyl)thiazole-2-carbonyl)-4,4a,5,6,7,8-hexahydro-1H-benzo[f]indazol-6-yl)-1-methyl-1H-1,2,3-triazole-4-sulfonamide]
- IC50 (GR): ≤ 100 nM
- inhibition at 5 min (CYP2C8): 25 to 50%

SMILES: Cn1cnc(S(=O)(=O)N(C2CC(F)(F)C2)[C@H]2CCC3=Cc4c(cnn4-c4ccc(F)cc4)C[C@]3(C(=O)c3cc(F)ccn3)C2)n1 [Example 354, N-(3,3-difluorocyclobutyl)-N-((4aS,6S)-1-(4-fluorophenyl)-4a-(4-fluoropicolinoyl)-4,4a,5,6,7,8-hexahydro-1H-benzo[f]indazol-6-yl)-1-methyl-1H-1,2,4-triazole-3-sulfonamide]
- IC50 (GR): ≤ 100 nM
- inhibition at 5 min (CYP2C8): 25 to 50%

SMILES: Cn1cnc(S(=O)(=O)N(C2CC(F)(F)C2)[C@H]2CCC3=Cc4c(cnn4-c4ccc(F)cc4)C[C@]3(C(=O)c3cc(Cl)ccn3)C2)n1 [Example 355, N-((4aS,6S)-4a-(4-chloropicolinoyl)-1-(4-fluorophenyl)-4,4a,5,6,7,8-hexahydro-1H-benzo[f]indazol-6-yl)-N-(3,3-difluorocyclobutyl)-1-methyl-1H-1,2,4-triazole-3-sulfonamide]
- IC50 (GR): ≤ 100 nM
- inhibition at 5 min (CYP2C8): ≤ 25%

SMILES: CCN([C@H]1CCC2=Cc3c(cnn3-c3ccc(F)cc3)C[C@]2(C(=O)c2ncc(C(F)(F)F)s2)C1)S(=O)(=O)c1ncn(C)n1 [Example 356, N-ethyl-N-((4aS,6S)-1-(4-fluorophenyl)-4a-(5-(trifluoromethyl)thiazole-2-carbonyl)-4,4a,5,6,7,8-hexahydro-1H-benzo[f]indazol-6-yl)-1-methyl-1H-1,2,4-triazole-3-sulfonamide]
- IC50 (GR): ≤ 100 nM
- inhibition at 5 min (CYP2C8): 25 to 50%

SMILES: CCN([C@H]1CCC2=Cc3c(cnn3-c3ccc(F)cc3)C[C@]2(C(=O)c2cc(C(F)(F)F)ccn2)C1)S(=O)(=O)c1ncn(C)n1 [Example 357, N-ethyl-N-((4aS,6S)-1-(4-fluorophenyl)-4a-(4-(trifluoromethyl)picolinoyl)-4,4a,5,6,7,8-hexahydro-1H-benzo[f]indazol-6-yl)-1-methyl-1H-1,2,4-triazole-3-sulfonamide]
- IC50 (GR): ≤ 100 nM
- inhibition at 5 min (CYP2C8): ≤ 25%

SMILES: CCN([C@H]1CCC2=Cc3c(cnn3-c3ccc(F)cc3)C[C@]2(C(=O)c2cc(F)ccn2)C1)S(=O)(=O)c1ncn(C)n1 [Example 358, N-ethyl-N-((4aS,6S)-1-(4-fluorophenyl)-4a-(4-fluoropicolinoyl)-4,4a,5,6,7,8-hexahydro-1H-benzo[f]indazol-6-yl)-1-methyl-1H-1,2,4-triazole-3-sulfonamide]
- IC50 (GR): ≤ 100 nM
- inhibition at 5 min (CYP2C8): 25 to 50%

SMILES: CCN([C@H]1CCC2=Cc3c(cnn3-c3ccc(F)cc3)C[C@]2(C(=O)c2cc(Cl)ccn2)C1)S(=O)(=O)c1ncn(C)n1 [Example 359, N-((4aS,6S)-4a-(4-chloropicolinoyl)-1-(4-fluorophenyl)-4,4a,5,6,7,8-hexahydro-1H-benzo[f]indazol-6-yl)-N-ethyl-1-methyl-1H-1,2,4-triazole-3-sulfonamide]
- IC50 (GR): ≤ 100 nM
- inhibition at 5 min (CYP2C8): 25 to 50%

SMILES: Cn1cnc(S(=O)(=O)N(C2CC2)[C@H]2CCC3=Cc4c(cnn4-c4ccc(F)cc4)C[C@]3(C(=O)c3cc(Cl)ccn3)C2)c1 [Example 363, N-((4aS,6S)-4a-(4-chloropicolinoyl)-1-(4-fluorophenyl)-4,4a,5,6,7,8-hexahydro-1H-benzo[f]indazol-6-yl)-N-cyclopropyl-1-methyl-1H-imidazole-4-sulfonamide]
- IC50 (GR): ≤ 100 nM
- inhibition at 5 min (CYP2C8): 25 to 50%

SMILES: Cn1ccc(S(=O)(=O)N([C@H]2CCC3=Cc4c(cnn4-c4ccc(F)cc4)C[C@]3(C(=O)c3ncc(C(F)(F)F)s3)C2)[C@H]2C[C@](O)(C(F)(F)F)C2)n1 [Example 366, N-((4aS,6S)-1-(4-fluorophenyl)-4a-(5-(trifluoromethyl)thiazole-2-carbonyl)-4,4a,5,6,7,8-hexahydro-1H-benzo[f]indazol-6-yl)-N-((1s,3R)-3-hydroxy-3-(trifluoromethyl)cyclobutyl)-1-methyl-1H-pyrazole-3-sulfonamide]
- IC50 (GR): ≤ 100 nM
- inhibition at 5 min (CYP2C8): ≤ 25%

SMILES: Cn1cnc(S(=O)(=O)N(CC(F)(F)F)[C@H]2CCC3=Cc4c(cnn4-c4ccc(F)cc4)C[C@]3(C(=O)c3ncc(C(F)(F)F)s3)C2)n1 [Example 367, N-((4aS,6S)-1-(4-fluorophenyl)-4a-(5-(trifluoromethyl)thiazole-2-carbonyl)-4,4a,5,6,7,8-hexahydro-1H-benzo[f]indazol-6-yl)-1-methyl-N-(2,2,2-trifluoroethyl)-1H-1,2,4-triazole-3-sulfonamide]
- IC50 (GR): ≤ 100 nM
- inhibition at 5 min (CYP2C8): 25 to 50%

SMILES: Cn1ccc(S(=O)(=O)N([C@H]2CCC3=Cc4c(cnn4-c4ccc(F)cc4)C[C@]3(C(=O)c3ncc(C(F)(F)F)s3)C2)[C@H]2C[C@@](O)(C(F)(F)F)C2)n1 [Example 368, N-((4aS,6S)-1-(4-fluorophenyl)-4a-(5-(trifluoromethyl)thiazole-2-carbonyl)-4,4a,5,6,7,8-hexahydro-1H-benzo[f]indazol-6-yl)-N-((1r,3S)-3-hydroxy-3-(trifluoromethyl)cyclobutyl)-1-methyl-1H-pyrazole-3-sulfonamide]
- IC50 (GR): ≤ 100 nM
- inhibition at 5 min (CYP2C8): 25 to 50%
